Measurements as given in patent US11173145B2, “Compounds useful as inhibitors of indoleamine 2,3-dioxygenase and/or tryptophan dioxygenase” (Board of Regents, The University of Texas System, priority 2017, dated 2021).

Molecular target: T1, IDO1 (Homo sapiens, UniProt P14902)
T1 construct: endogenous in cells; host or cells: HeLa cells (ATCC), IFNgamma-induced
Experiment: IDO1 cell-based assay (HeLa cells, IFNgamma-induced, N-formylkynurenine/L-tryptophan by RFMS)
Conditions: 10 ng/mL IFNgamma, 24 hours
Method in brief: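 N-formylkynurenine and tryptophan peak areas in media measured by RFMS (C18, isocratic, d-Trp standard), giving IC50 values by regression. Source: HeLa cells incubated 24 h with IFNgamma (10 ng/mL) plus test compound at 0.5% DMSO; parallel CellTiter-Glo viability read.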

T1 sequence (P14902 whole entry): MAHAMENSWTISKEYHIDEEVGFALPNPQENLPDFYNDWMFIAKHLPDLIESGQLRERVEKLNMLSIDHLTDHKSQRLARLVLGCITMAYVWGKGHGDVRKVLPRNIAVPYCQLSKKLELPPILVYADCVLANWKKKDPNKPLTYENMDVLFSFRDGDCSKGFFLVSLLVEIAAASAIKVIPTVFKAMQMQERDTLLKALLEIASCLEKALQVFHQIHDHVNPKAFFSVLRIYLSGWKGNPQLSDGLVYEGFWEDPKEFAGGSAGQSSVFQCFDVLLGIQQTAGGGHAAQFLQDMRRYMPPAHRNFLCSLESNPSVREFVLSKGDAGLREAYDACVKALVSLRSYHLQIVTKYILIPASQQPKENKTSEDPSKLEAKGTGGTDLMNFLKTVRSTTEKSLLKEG

| IC50 [nM] | SMILES |
| --- | --- |
| < 200 | CC[C@@H](NC(=O)c1ccc(Cl)cc1)[C@H]1[C@@H]2C[C@@H](Nc3ncnc4ccc(F)cc34)C[C@@H]21 [Compound 336, 4-chloro-N-((R)-1-((1R,3S,5S,6r)-3-((6-fluoroquinazolin-4-yl)amino)bicyclo[3.1.0]hexan-6-yl)propyl)benzamide] |
| < 200 | CCC(NC(=O)c1ccc(Cl)cc1)[C@H]1[C@@H]2C[C@@H](Oc3ncnc4ccccc34)C[C@@H]21 (stereo partly drawn) [Compound 59, 4-chloro-N-(1-((1R,3s,5S,6r)-3-(quinazolin-4-yloxy)bicyclo[3.1.0]hexan-6-yl)propyl)benzamide] |
| < 200 | CCC(NC(=O)c1ccc(Cl)cc1)[C@H]1[C@@H]2C[C@@H](N3C(=O)C(F)(F)c4ccccc43)C[C@@H]21 (stereo partly drawn) [Compound 119, 4-chloro-N-(1-((1R,3s,5S,6r)-3-(3,3-difluoro-2-oxoindolin-1-yl)bicyclo[3.1.0]hexan-6-yl)propyl)benzamide] |
| < 200 | CCC(NC(=O)c1ccc(Cl)cc1)[C@H]1[C@@H]2C[C@@H](n3ncc(=O)c4ccccc43)C[C@@H]21 (stereo partly drawn) [Compound 47, 4-chloro-N-(1-((1R,3s,5S,6r)-3-(4-oxocinnolin-1(4H)-yl)bicyclo[3.1.0]hexan-6-yl)propyl)benzamide] |
| 2000 to 5000 | CCC(NC(=O)c1ccc(Cl)cc1)[C@H]1[C@@H]2C[C@@H](N3CCOCC3)C[C@@H]21 (stereo partly drawn) [Compound 73, 4-chloro-N-(1-((1R,3s,5S,6r)-3-morpholinobicyclo[3.1.0]hexan-6-yl)propyl)benzamide] |
| < 200 | CC[C@@H](NC(=O)c1ccc(Cl)cc1)[C@H]1[C@@H]2C[C@H](c3ccnc4ccc(F)cc34)C[C@@H]21 [Compound 286, 4-chloro-N-((R)-1-((1R,3R,5S,6r)-3-(6-fluoroquinolin-4-yl)bicyclo[3.1.0]hexan-6-yl)propyl)benzamide] |
| < 200 | CCC(NC(=O)c1ccc(Cl)cc1)[C@H]1[C@@H]2C[C@@H](n3cc(C(=O)N4CCCC4)nn3)C[C@@H]21 (stereo partly drawn) [Compound 98, 4-chloro-N-(1-((1R,3s,5S,6r)-3-(4-(pyrrolidine-1-carbonyl)-1H-1,2,3-triazol-1-yl)bicyclo[3.1.0]hexan-6-yl)propyl)benzamide] |
| < 200 | CC[C@@H](NC(=O)c1ccc(Cl)cc1)[C@H]1[C@@H]2C[C@@H](NC(=O)c3cccnc3)C[C@@H]21 [Compound 335, N-((1R,3S,5S,6r)-6-((R)-1-(4-chlorobenzamido)propyl)bicyclo[3.1.0]hexan-3-yl)nicotinamide] |
| < 200 | CCC(NC(=O)c1ccc(Cl)cc1)[C@H]1[C@@H]2C[C@@H](Oc3nc(C)ncc3F)C[C@@H]21 (stereo partly drawn) [Compound 52, 4-chloro-N-(1-((1R,3s,5S,6r)-3-((5-fluoro-2-methylpyrimidin-4-yl)oxy)bicyclo[3.1.0]hexan-6-yl)propyl)benzamide] |
| < 200 | CCC(NC(=O)c1ccc(Cl)cc1)[C@H]1[C@@H]2C[C@@H](Oc3ccnc(C)c3F)C[C@@H]21 (stereo partly drawn) [Compound 93, 4-chloro-N-(1-((1R,3s,5S,6r)-3-((3-fluoro-2-methylpyridin-4-yl)oxy)bicyclo[3.1.0]hexan-6-yl)propyl)benzamide] |
| 200 to 2000 | CCC(NC(=O)c1ccc(Cl)cc1)[C@H]1[C@@H]2C[C@@H](O)C[C@@H]21 (single isomer, unassigned) [Compound 3] |
| < 200 | CC[C@@H](NC(=O)c1ccc(Cl)cc1)[C@H]1[C@@H]2C[C@@H](n3cc(Br)cn3)C[C@@H]21 [Compound 329, N-((R)-1-((1R,3S,5S,6r)-3-(4-bromo-1H-pyrazol-1-yl)bicyclo[3.1.0]hexan-6-yl)propyl)-4-chlorobenzamide] |

The remaining lines, values behind:

| SMILES | IC50 [nM] |
| --- | --- |
| COCC(NC(=O)c1ccc(Cl)cc1)[C@H]1[C@@H]2C[C@@H](n3cc(C4CC4)nn3)C[C@@H]21 (stereo partly drawn) [Compound 173, 4-chloro-N-(1-((1R,3s,5S,6r)-3-(4-cyclopropyl-1H-1,2,3-triazol-1-yl)bicyclo[3.1.0]hexan-6-yl)-2-methoxyethyl)benzamide] | < 200 |
| C[C@@H](NC(=O)c1ccc(C#N)cc1)[C@H]1[C@@H]2C[C@H](O)C[C@@H]21 [Compound 296, 4-cyano-N-((R)-1-((1R,3R,5S,6r)-3-hydroxybicyclo[3.1.0]hexan-6-yl)ethyl)benzamide] | > 5000 |
| CC[C@@H](NC(=O)c1cccc(Cl)c1)[C@H]1[C@@H]2C[C@@H](n3cnc4cc(F)c(F)cc43)C[C@@H]21 [Compound 310, 3-chloro-N-((R)-1-((1R,3S,5S,6r)-3-(5,6-difluoro-1H-benzo[d]imidazol-1-yl)bicyclo[3.1.0]hexan-6-yl)propyl)benzamide] | < 200 |
| O=C(NC[C@@H]1[C@H]2C[C@H](n3cnc4cc(F)c(F)cc43)C[C@@H]12)c1ccc(F)cc1 [Compound 314, N-(((1R,3s,5S,6r)-3-(5,6-difluoro-1H-benzo[d]imidazol-1-yl)bicyclo[3.1.0]hexan-6-yl)methyl)-4-fluorobenzamide] | < 200 |
| CC[C@@H](NC(=O)N1CC(F)(F)C1)[C@H]1[C@@H]2C[C@@H](n3cnc4cc(F)c(F)cc43)C[C@@H]21 [Compound 354, N-((R)-1-((1R,3S,5S,6r)-3-(5,6-difluoro-1H-benzo[d]imidazol-1-yl)bicyclo[3.1.0]hexan-6-yl)propyl)-3,3-difluoroazetidine-1-carboxamide] | 200 to 2000 |
| O=C(NC[C@@H]1[C@H]2C[C@H](n3cnc4cc(F)c(F)cc43)C[C@@H]12)c1ccc(Cl)c(F)c1 [Compound 315, 4-chloro-N-(((1R,3s,5S,6r)-3-(5,6-difluoro-1H-benzo[d]imidazol-1-yl)bicyclo[3.1.0]hexan-6-yl)methyl)-3-fluorobenzamide] | < 200 |
| Cc1ccc(C(=O)NC[C@@H]2[C@H]3C[C@H](n4cnc5cc(F)c(F)cc54)C[C@@H]23)cc1 [Compound 322, N-(((1R,3s,5S,6r)-3-(5,6-difluoro-1H-benzo[d]imidazol-1-yl)bicyclo[3.1.0]hexan-6-yl)methyl)-4-methylbenzamide] | < 200 |
| CC[C@@H](NC(=O)N1CCOCC1)[C@H]1[C@@H]2C[C@@H](n3cnc4cc(F)c(F)cc43)C[C@@H]21 [Compound 356, N-((R)-1-((1R,3S,5S,6r)-3-(5,6-difluoro-1H-benzo[d]imidazol-1-yl)bicyclo[3.1.0]hexan-6-yl)propyl)morpholine-4-carboxamide] | 2000 to 5000 |
| O=C(NC1C2CC(Oc3ccnc4ccccc34)CC21)c1ccc(Cl)cc1 (centres unmarked) [Compound 26, 4-chloro-N-(3-(quinolin-4-yloxy)bicyclo[3.1.0]hexan-6-yl)benzamide] | 200 to 2000 |
| CC(NC(=O)c1ccc(Cl)cc1)[C@H]1[C@@H]2C[C@@H](n3cnc4ccc(F)cc4c3=O)C[C@@H]21 (stereo partly drawn) [Compound 63, 4-chloro-N-(1-((1R,3s,5S,6r)-3-(6-fluoro-4-oxoquinazolin-3(4H)-yl)bicyclo[3.1.0]hexan-6-yl)ethyl)benzamide] | < 200 |
| CCC(NC(=O)c1ccc(C#N)cc1)[C@H]1[C@@H]2C[C@@H](Oc3cnnc4ccccc34)C[C@@H]21 (stereo partly drawn) [Compound 80, N-(1-((1R,3s,5S,6r)-3-(cinnolin-4-yloxy)bicyclo[3.1.0]hexan-6-yl)propyl)-4-cyanobenzamide] | < 200 |
